Measured values published in patent US10626077B2, “Salvianolic acid compound T, preparation method therefor, and use thereof” (TASLY PHARMACEUTICAL GROUP CO., LTD., priority 2013, dated 2020).
pIC50: −log10 of the molar value.

Assays:
[1] = tested on: L929 cells induced by TGF-β1; experiment: Inhibition of L929 cell proliferation induced by TGF-β1 (MTT); format: cell-based; details: 2 μg/L TGF-β1, 72 h, MTT method
Method: L929 cells with a cell population of 5×10^7/L adjusted by DMEM culture solution containing 10% fetal bovine serum were seeded into 96 well plate, cultured for 24 h. Supplementing the same culture medium containing 2 μg/L TGF-β1 and (S)/(R)-salvianolic acid T of different concentrations. There were 6 multiple pores in each group, final concentration of (S)/(R)-salvianolic acid T was set as 0, 1, 3, 10, 20, 40, 80, 150 μmol/L. Removing medium after being cultured for 72 h, assaying the cell activity by MTT method.

[2] = Determination of reducing capacity (potassium ferricyanide / ferric chloride, absorbance at 700 nm)
Method: 0.5 ml of 200 mM phosphate buffer (pH6.8) containing different concentrations of the (S)/(R)-salvianolic acid T and 0.5 ml of 1.0% (w/v) potassium ferricyanide solution were sucked respectively and cooled on an ice bath after being heated on a water bath (50[…]) for 20 min. 0.5 ml of 10% trichloroacetic acid solution was added and centrifuged at […] for 10 min. 1.0 ml of the resulting supernatant was taken, into which 1.0 ml of distilled water and 0.2 ml of 0.1% (w/v) ferric chloride solution were added, stood still for 10 min and the absorbance was measured at 700 nm. Meanwhile, the blank experiment was carried out. Vitamin C is a strongly reducing substance, acting as positive control in this study. Reducing capacity of the sample is represented by subtracting the absorbance of the blank control from the absorbance of the tested sample. Thus, it means the higher absorbance, the stronger reducing capacity.

[3] = tested on: pituitrin-caused acute myocardial ischemia in rats; experiment: Pituitrin-caused experimental acute myocardial ischemia in rats (ECG J point and T wave); format: in vivo, SD rats; parameters: J point / T wave: unit not given here
Method: Administration dose of the (R)-salvianolic acid T lyophilized powder was 10 mg/kg body-weight in high-dose group; 5.0 mg/kg body-weight in low-dose group.
2.1 Screening of Animals: Before formal experiment, rats were injected via vena caudalis with pituitrin (Pit) (1 U/kg). Normal ECG and the ECG of 5 min after injection were recorded to observe J point elevation and T wave abnormality. Animals who had abnormal ECG before injection or who were insensitive to Pit were rejected.
2.2 Grouping of Animals: The desirable rats were divided into 3 groups randomly, respectively named […]Model control group, □(R)-salvianolic acid T lyophilized powder low-dose group; □(R)-salvianolic acid T lyophilized powder high-dose group.
3. Experimental Methods: SD rats, in body-weight of 220-250 g, half male and half female, were randomly divided into groups, 10 animals in each group. The rats in the treatment groups were drenched with aqueous suspensions of different samples each day, while the rats in the model control group were drenched with equal volume of normal saline. All animals were consecutively administered for 7 days. 40 min after final administration, the rats were anesthetized and connected with devices to record lead II normal ECG. The pituitrin (Pit) was injected at a constant speed in the dosage of 1 U/kg body-weight via vena caudalis within about 10 s. ECG changes were recorded at 0 s, 5 s, 10 s, 15 s, 30 s, 45 s, 1 min, 2 min, 3 min, 4 min, 5 min, 10 min and 15 min after administration. Differences between pre injection and post injection of Pit of each group as well as between the treatment group and the model control group were compared to analyze changes of J point and T wave, and the data were analyzed by t-test.

[4] = tested on: rats with myocardial infarction induced by coronary artery ligation; experiment: Myocardial infarction rate (TTC staining) after coronary artery ligation; format: in vivo, SD rats; details: high-dose group compared with aspirin group; FIG. 11 heart biopsy
Method: Clean male SD rats were taken and placed in groups randomly according to the body-weight, including pseudo operation group (distilled water), model group (distilled water), aspirin group, (S)-salvianolic acid T low-dose group, (S)-salvianolic acid T high-dose group, and there were 10 rats in each group. Each group of rats were administrated by gastric administration once a day, continuously for 10 days. […] Recording standard II lead ECG at 5 minutes before surgery, 0 s, 1 min, 5 min, 15 min, 1 h, 4 h after the ligation, to investigate the changes of J point of ECG. Taking out the heart immediately after the end of the experiment, washing away the blood with normal saline, cutting off the atrium and the bottom of the blood vessels, weighing the mass of the ventricle, cutting the ventricle into 5 pieces on average along the atrioventricular groove and putting them into 1% (w/v) TTC solution, dyeing in the water bath at a constant temperature of 37 °C for 5 min, taking digital photos firstly after taking them out, then separating the unstained parts (that is, the infarct parts) and weighing to calculate the percentage of them in the mass of total ventricular (myocardial infarction percentage), and performing t test with ischemia model group. The formula for calculating the infarct percentage is as follows: Infarct percentage (%)=(the mass of pale areas/the mass of the ventricle)×100%

[5] = DPPH free-radical scavenging reaction
Method: Absorbance of the reaction solution was measured at 517 nm. In this study, vitamin C was regarded as a positive control. Free-radical scavenging rate was calculated in accordance with the following equation: Free-radical scavenging rate (%)=[1−Asample/Acontrol)/Acontrol]×100% Wherein, the Asample means the absorbance of the tested samples, and Acontrol means the absorbance of blank control.

[6] = compared with positive control vitamin C
[7] = high-dose group (10 mg/kg), 0 s after pituitrin
[8] = high-dose group (10 mg/kg), 15 s after pituitrin
[9] = high-dose group (10 mg/kg), 30 s after pituitrin
[10] = high-dose group (10 mg/kg), 45 s after pituitrin
[11] = high-dose group (10 mg/kg), 1 min after pituitrin
[12] = high-dose group (10 mg/kg), 5 min after pituitrin
[13] = high-dose group (10 mg/kg), 10 min after pituitrin
[14] = high-dose group (10 mg/kg, drenched 7 days), normal ECG before pituitrin
[15] = low-dose group (5.0 mg/kg), 0 s after pituitrin
[16] = low-dose group (5.0 mg/kg), 15 s after pituitrin
[17] = low-dose group (5.0 mg/kg), 30 s after pituitrin
[18] = low-dose group (5.0 mg/kg), 45 s after pituitrin
[19] = low-dose group (5.0 mg/kg), 1 min after pituitrin
[20] = low-dose group (5.0 mg/kg), 5 min after pituitrin
[21] = low-dose group (5.0 mg/kg), 10 min after pituitrin
[22] = low-dose group (5.0 mg/kg, drenched 7 days), normal ECG before pituitrin

With `O=C(/C=C/c1ccc(O)c(O)c1/C(=C\c1ccc(O)c(O)c1)C(=O)O)O[C@H](Cc1ccc(O)c(O)c1)C(=O)O` [(R)-salvianolic acid T] as the molecule, how does the pIC50 [1] read?
Its pIC50 is 4.57.

And the “reducing capacity compared with vitamin C” value [2, 6]?
Its value is “much stronger than that of vitamin C”.

And the “reducing capacity (absorbance at 700 nm minus blank control)” value ([2]; sample 3.125 μg/ml)?
Its value is 0.152 ± 0.034.

What about the “reducing capacity (absorbance at 700 nm minus blank control)” value ([2]; sample 6.25 μg/ml) of the same molecule?
The value was 0.212 ± 0.009.

And the “reducing capacity (absorbance at 700 nm minus blank control)” value ([2]; sample 12.5 μg/ml)?
Its value is 0.042 ± 0.011.

And the “reducing capacity (absorbance at 700 nm minus blank control)” value ([2]; sample 25 μg/ml)?
The value was 0.761 ± 0.018.

And the “reducing capacity (absorbance at 700 nm minus blank control)” value ([2]; sample 50 μg/ml)?
Its value is 1.561 ± 0.026.

And the “effect of anti-acute myocardiac ischemia” value ([3]; 10.0 mg/kg)?
Its value is “had effect of anti-acute myocardiac ischemia”.

And the J point [3, 7]?
The J point was −0.040 ± 0.039.

And the T wave [3, 7]?
Its T wave is 0.128 ± 0.106.

What about the J point [3, 8] of the same molecule?
The J point was −0.069 ± 0.035.

And the T wave [3, 8]?
Its T wave is 0.150 ± 0.101.

What about the J point [3, 9] of the same molecule?
The J point was −0.058 ± 0.035.

And the T wave [3, 9]?
The T wave was 0.100 ± 0.095.

What about the J point [3, 10] of the same molecule?
The J point was −0.052 ± 0.031.

And the T wave [3, 10]?
The T wave was 0.134 ± 0.105.

And the J point [3, 11]?
The J point was −0.016 ± 0.037.

What about the T wave [3, 11] of the same molecule?
Its T wave is 0.145 ± 0.099.

What about the J point [3, 12] of the same molecule?
Its J point is −0.058 ± 0.049.

And the T wave [3, 12]?
The T wave was 0.127 ± 0.104.

And the J point [3, 13]?
Its J point is -0.061 ± 0.049.

And the T wave [3, 13]?
Its T wave is 0.150 ± 0.102.

What about the J point [3, 14] of the same molecule?
Its J point is −0.049 ± 0.037.

What about the T wave [3, 14] of the same molecule?
The T wave was 0.099 ± 0.073.

What about the J point [3, 15] of the same molecule?
The J point was −0.040 ± 0.027.

What about the T wave [3, 15] of the same molecule?
Its T wave is 0.134 ± 0.104.

And the J point [3, 16]?
The J point was 0.023 ± 0.039.

And the T wave [3, 16]?
Its T wave is 0.211 ± 0.109.

What about the J point [3, 17] of the same molecule?
Its J point is −0.052 ± 0.022.

And the T wave [3, 17]?
Its T wave is 0.189 ± 0.120.

And the J point [3, 18]?
Its J point is −0.030 ± 0.041.

What about the T wave [3, 18] of the same molecule?
The T wave was 0.176 ± 0.137.

And the J point [3, 19]?
The J point was −0.016 ± 0.032.

And the T wave [3, 19]?
Its T wave is 0.151 ± 0.097.

What about the J point [3, 20] of the same molecule?
The J point was −0.034 ± 0.052.

What about the T wave [3, 20] of the same molecule?
The T wave was 0.121 ± 0.101.

And the J point [3, 21]?
The J point was −0.025 ± 0.051.

What about the T wave [3, 21] of the same molecule?
The T wave was 0.142 ± 0.099.

What about the J point [3, 22] of the same molecule?
The J point was −0.054 ± 0.046.

What about the T wave [3, 22] of the same molecule?
The T wave was 0.101 ± 0.069.

What about the “effect on preventing acute myocardial infarction induced by coronary artery ligation” value [4] of the same molecule?
The value was “equal effect”.

And the “free-radical scavenging compared with vitamin C” value [5, 6]?
The value was “much higher free-radical scavenging than that of the vitamin C”.

What about the Free-radical scavenging rate ([5]; sample 0.625 μg/ml, 100 μM DPPH, 20 min, 25° C.) of the same molecule?
Its Free-radical scavenging rate is 10.51 ± 0.73%.

And the Free-radical scavenging rate ([5]; sample 1.25 μg/ml)?
Its Free-radical scavenging rate is 28.15 ± 2.47%.

What about the Free-radical scavenging rate ([5]; sample 2.5 μg/ml) of the same molecule?
The Free-radical scavenging rate was 43.41 ± 1.85%.

What about the Free-radical scavenging rate ([5]; sample 5 μg/ml) of the same molecule?
Its Free-radical scavenging rate is 85.59 ± 8.75%.

What about the Free-radical scavenging rate ([5]; sample 10 μg/ml) of the same molecule?
Its Free-radical scavenging rate is 99.47 ± 5.14%.
